Laboratory results from article PMC7759869 (Biomedicines, 2020).

Columns and labels:
CYP3A4 + cyt b5 = biological target: T1, CYP3A4 + cyt b5 (Homo sapiens, UniProt P08684); experiment: Cabozantinib oxidation by recombinant CYP3A4 in the presence of cyt b5 (Supersomes); format: in vitro ADME; conditions: Supersomes with cyt b5 vs without, 50 µM cabozantinib
T1 construct: purchased Corning (Corning, NY, USA); host or cells: insect cells (baculovirus)
Excerpt: Cabozantinib was from MedChemExpress (Monmouth Junction, NJ, USA). Standard of cabozantinib N-oxide was purchased from Toronto Research Chemicals (Toronto, Canada). Ketoconazole, NADPH and other chemicals were all purchased from Merck (Darnstadt, Germany). The purity of all chemicals met the standards of American Chemical Society, unless otherwise noted. Male human hepatic microsomes (pooled sample) (sample LOT: 3043885) were from Gentest Corp. (Woburn, MA, USA). Microsomes from livers of twelve human donors were obtained from Gentest Corp. (Woburn, MA, USA) (Lot. no. HG43-1, HG103, HG74, HG93, HG24, HG27, HG23, HG32, HK31, HK34, HG03 and HG42). Each human microsomal sample was characterized for CYP, FMO, total protein contents and specific CYP activities by Gentest Corp. and reanalyzed by us by assays described in the protocols of Gentest Corp. Our data were similar to those reported by Gentest Corp. (Table 1). Human recombinant enzymes were used in the forms of Supersomes™ and obtained from Corning (Corning, NY, USA). In Supersomes™, microsomal fractions were isolated from insect cells that were transfected with baculovirus constructs containing cDNA of human CYP enzymes (CYP1A1/2, 1B1, 2A6, 2B6, 2C8/9/18/19/, 2D6, 2E1, 3A4). The Supersomes™ also express NADPH:CYP oxidoreductase (POR). However, because they are microsomes (particles of broken endoplasmic reticulum), other enzymes (proteins) of the endoplasmic reticulum membrane (like NADH:cytochrome b5 reductase and cytochrome b5) are also expressed at basal levels in these Supersomes™. We also utilized Supersomes™, which overexpressed cytochrome b5, in a molar ratio of CYP to cytochrome b5 of 1 to 5. In Supersomes™, where cytochrome b5 was not overexpressed (see above), pure cytochrome b5 was added to reach a molar ratio of CYP to cytochrome b5 of 1 to 5. Reconstitution of Supersomes™ with purified cytochrome b5 was performed as described previously. Human recombinant FMOs and AO were also used in the forms of Supersomes™ (Gentest Corp., Woburn, MA, USA). These microsomal fractions were isolated from insect cells that are transfected with baculovirus constructs containing cDNA of human FMO1, FMO3, FMO5 or AO enzymes.
The reaction was initiated by adding NADPH. In control incubations, either microsomes or CYP (FMO, AO) or NADPH were omitted. […] The reaction was stopped by extraction with ethyl acetate (2 × 1 mL). […] Cabozantinib metabolites separated by HPLC were characterized by mass spectroscopy (see further details below).

FMO1 = biological target: T2, FMO1 (Homo sapiens, UniProt Q01740); experiment: Oxidation of cabozantinib by recombinant FMO1; format: in vitro ADME; conditions: human recombinant enzyme, data not shown
T2 construct: purchased Gentest Corp., Woburn, MA, USA; host or cells: insect cells (baculovirus)
T2 sequence (Q01740 1-532): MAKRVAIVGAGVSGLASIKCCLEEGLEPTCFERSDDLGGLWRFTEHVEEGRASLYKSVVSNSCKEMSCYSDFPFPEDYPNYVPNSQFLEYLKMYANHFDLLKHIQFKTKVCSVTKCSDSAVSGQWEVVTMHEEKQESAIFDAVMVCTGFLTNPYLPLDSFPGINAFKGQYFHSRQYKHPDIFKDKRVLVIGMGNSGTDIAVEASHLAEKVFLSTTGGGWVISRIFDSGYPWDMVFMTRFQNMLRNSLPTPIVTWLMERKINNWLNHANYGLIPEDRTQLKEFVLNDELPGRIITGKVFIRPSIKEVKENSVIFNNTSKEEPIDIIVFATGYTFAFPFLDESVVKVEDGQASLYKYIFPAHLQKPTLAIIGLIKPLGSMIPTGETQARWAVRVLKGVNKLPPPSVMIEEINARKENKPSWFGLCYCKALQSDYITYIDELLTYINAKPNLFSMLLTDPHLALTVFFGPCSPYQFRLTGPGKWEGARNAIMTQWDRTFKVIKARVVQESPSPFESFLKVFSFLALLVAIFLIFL
Excerpt: The purity of all chemicals met the standards of American Chemical Society, unless otherwise noted. […] Microsomes from livers of twelve human donors were obtained from Gentest Corp. (Woburn, MA, USA) (Lot. no. HG43-1, HG103, HG74, HG93, HG24, HG27, HG23, HG32, HK31, HK34, HG03 and HG42). […] Human recombinant enzymes were used in the forms of Supersomes™ and obtained from Corning (Corning, NY, USA). In Supersomes™, microsomal fractions were isolated from insect cells that were transfected with baculovirus constructs containing cDNA of human CYP enzymes (CYP1A1/2, 1B1, 2A6, 2B6, 2C8/9/18/19/, 2D6, 2E1, 3A4). The Supersomes™ also express NADPH:CYP oxidoreductase (POR). However, because they are microsomes (particles of broken endoplasmic reticulum), other enzymes (proteins) of the endoplasmic reticulum membrane (like NADH:cytochrome b5 reductase and cytochrome b5) are also expressed at basal levels in these Supersomes™. We also utilized Supersomes™, which overexpressed cytochrome b5, in a molar ratio of CYP to cytochrome b5 of 1 to 5. In Supersomes™, where cytochrome b5 was not overexpressed (see above), pure cytochrome b5 was added to reach a molar ratio of CYP to cytochrome b5 of 1 to 5. Reconstitution of Supersomes™ with purified cytochrome b5 was performed as described previously. Human recombinant FMOs and AO were also used in the forms of Supersomes™ (Gentest Corp., Woburn, MA, USA).

FMO5 = biological target: T3, FMO5 (Homo sapiens, UniProt P49326); experiment: Oxidation of cabozantinib by recombinant FMO5; format: in vitro ADME; conditions: human recombinant enzyme, data not shown
T3 construct: purchased Gentest Corp., Woburn, MA, USA; host or cells: insect cells (baculovirus)
T3 sequence (P49326 1-533): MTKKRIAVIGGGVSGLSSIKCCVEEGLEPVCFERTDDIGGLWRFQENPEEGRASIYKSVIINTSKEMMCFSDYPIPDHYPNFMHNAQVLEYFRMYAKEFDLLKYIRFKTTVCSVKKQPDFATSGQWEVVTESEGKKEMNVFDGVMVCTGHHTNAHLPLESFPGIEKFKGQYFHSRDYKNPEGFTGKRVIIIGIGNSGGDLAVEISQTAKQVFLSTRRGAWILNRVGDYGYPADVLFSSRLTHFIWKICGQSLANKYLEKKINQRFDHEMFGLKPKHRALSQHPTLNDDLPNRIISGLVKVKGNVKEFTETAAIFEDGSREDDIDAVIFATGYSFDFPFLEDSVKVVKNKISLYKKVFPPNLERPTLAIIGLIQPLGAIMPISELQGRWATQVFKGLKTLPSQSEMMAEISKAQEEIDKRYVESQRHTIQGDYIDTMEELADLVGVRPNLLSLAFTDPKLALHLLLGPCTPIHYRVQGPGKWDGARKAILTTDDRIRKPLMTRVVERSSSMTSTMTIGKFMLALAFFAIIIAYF

CYP3A4 = CYP3A4 (Homo sapiens, UniProt P08684); conditions: cited from earlier work
CYP3A4, sequence (P08684 whole entry): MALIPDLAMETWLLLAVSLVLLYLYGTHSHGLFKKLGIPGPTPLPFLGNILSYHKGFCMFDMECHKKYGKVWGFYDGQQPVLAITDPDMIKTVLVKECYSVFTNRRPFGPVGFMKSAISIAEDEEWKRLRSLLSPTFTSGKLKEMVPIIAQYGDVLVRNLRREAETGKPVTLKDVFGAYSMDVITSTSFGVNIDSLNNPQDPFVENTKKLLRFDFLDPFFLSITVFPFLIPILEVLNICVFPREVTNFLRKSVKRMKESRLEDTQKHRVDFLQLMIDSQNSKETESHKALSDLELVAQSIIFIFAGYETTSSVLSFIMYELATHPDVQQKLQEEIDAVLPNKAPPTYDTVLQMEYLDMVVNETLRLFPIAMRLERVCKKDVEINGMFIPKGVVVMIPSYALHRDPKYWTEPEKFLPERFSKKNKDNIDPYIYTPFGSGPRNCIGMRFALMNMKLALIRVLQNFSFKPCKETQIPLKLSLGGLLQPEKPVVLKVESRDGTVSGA

[1] = design: concentration or dose not given beside the values; conditions: metastatic renal cell carcinoma patients; cited from earlier work

T1 sequence (P08684 whole entry): as above

For `COc1cc2nccc(Oc3ccc(NC(=O)C4(C(=O)Nc5ccc(F)cc5)CC4)cc3)c2cc1OC` [cabozantinib, N′1-{4-[(6,7-dimethoxyquinolin-4-yl)oxy]phenyl}-N1-(4-fluorophenyl)cyclopropane-1,1-dicarboxamide], the “Increase of oxidation / metabolite formation by co-expression of cyt b5 with CYP3A4” value (CYP3A4 + cyt b5) was “more than 2.9 fold”, the “Oxidation of cabozantinib by FMO 1” value (FMO1) was “ineffective” and the “Oxidation of cabozantinib by FMO 5” value (FMO5) was “ineffective”. The “Inhibition of CYP3A4-mediated testosterone 6β-hydroxylation” value (CYP3A4) was “did not inhibit” and the “Plasma concentration, mean” value [1] was 973 ± 501 ng/mL.
